Test results taken from patent US20160199434A1, “COMPOSITIONS AND METHODS FOR MODULATING DNA METHYLATION” (OHIO STATE INNOVATION FOUNDATION, priority 2013, published 2016).
Entries after “also recorded” stand apart in the source; their conditions may differ.

Assays:
[1] = test system: panel of 14 common tumor suppressor genes; assay: mRNA expression of 14 tumor suppressor genes in A549 cells; format: cell-based, human; settings: for CDKN1C mRNA expression level: DMSO standardized to 1.0
From the text: FIGS. 12A-12D show the level of mRNA expression for a panel of 14 common tumor suppressor genes in two types of human lung cancer cells (i.e., H1703 squamous cell carcinoma in FIG. 12A and A549 adenocarcinoma in FIG. 12B). […] All of the tumor suppressor mRNAs were augmented in response to AKB-6899 but one, the CDKN1C gene in A549 adenocarcinoma cells, in which expression levels were 0.1 (AKB10) and 0.9 (AKB50) compared to DMSO standardized to 1.0. In FIGS. 12A-12B, the following apply: “1”=DMSO, “2”=AKB-6899 (10 μM), “3”=AKB-6899 (50 μM), and “4”=combination of Decitabine (5 μM)/PBA (2 mM). FIGS. 12C and 12D are raw values for mRNA expression of these 14 genes.

[2] = test system: DSP mRNA; assay: DSP mRNA expression in lungs of normal mice; format: in vivo, mouse; settings: i.p., three weeks (FIG. 14C)
Description: FIGS. 14A-14C show the effects of systemic administration of AKB-6899. Mice were treated three times per week for three weeks with either i.p. AKB-6899 or i.p. DMSO. The lungs were removed and assayed to determine DNMT mRNA expression, percent CpG methylation, and fold change in mRNA. […] The data was standardized to 1.0 by the DMSO levels of the respective gene expression, (n=4 lungs per condition).

[3] = test system: DNMT-1; assay: DNMT-1 mRNA expression by RT-PCR in MDA-MB-231 tumor cells; format: cell-based, human; settings: 25 μM, 24 hours, compared to DMSO (FIG. 1B)
Description: FIGS. 1A-1E show DNA methyltransferase mRNA expression in vitro and in vivo. […] PyMT tumor cells were left untreated, were treated with DMSO, or were treated with AKB-6899 (10, 25, or 50 μM) for 24 hours. The cells were subjected to Trizol extraction to recover total RNA. cDNA was synthesized for RT-PCR of DNMT-1 and DNMT-3a mRNA expression. […] Human MDA-MB-231 tumor cells were left untreated, were treated with DMSO, or were treated with AKB-6899 (25 μM) for 24 hours. Total RNA was isolated for RT-PCR. FIG. 1C (DNMT-1), FIG. 1D (DNMT-3a), and FIG. 1E (DNMT-3b) compare the effect of AKB-6899 with the effect of 5-aza-2′deoxycytidine (5-AZA) as assessed by RT-PCR in human cervical tumors implanted in mice that were either untreated (UTX), treated with DMSO, treated with 5-AZA, or treated with AKB-6899 (17.5 mg/kg).
To determine whether the decrease in DNMT expression and the increase in DSP expression were relevant in human cancer, the level of desmoplakin expression in MDA-MB-231 human triple negative breast cancer cells was determined. […] (FIG. 3B).

O=C(O)CNC(=O)c1ncc(-c2cccc(F)c2)cc1O [AKB-6899, {[5-(3-Fluorophenyl)-3-hydroxypyridine-2-carbonyl]amino}acetic acid]
CDKN1C mRNA expression level ([1]; A549, 10 μM (AKB10)): 0.1
tumor suppressor mRNA expression ([1]; A549, 10 μM and 50 μM, vs DMSO, all genes but CDKN1C): augmented
CDKN1C mRNA expression level ([1]; A549, 50 μM (AKB50)): 0.9
DSP mRNA expression in lungs [2]: increased
DNMT-1 mRNA expression [3]: significantly decreased; also recorded: downregulated
